≈ marks a conversion by molar mass, not a printed value. Where “and” joins values, the source holds several entries; their conditions need not be identical. Equal entries are not always repeated.
How the values were obtained:
[1] = Mouse pharmacokinetics i.v./p.o.; assay type: in vivo; settings: plasma, male C57Bl6 mice; for clearance / Vd: iv, i.v. 0.5-1.0 mg/kg; for Vd: read-out: V ss; for bioavailability: po, p.o. 300 (A), 1.0 (B), 2.0 (C) mg/kg, read-out: Oral % F
Experimental: (§1) Detailed description in Supplementary materials.
Pharmacokinetics and evaluation of compound exposures: Male C57/BL mice were obtained from Si Bei Fu and weighed approximately 20-30 grams (7-9 weeks) at the start of the pharmacokinetic study. Animals had free access to food and water during the course of the experiment. Dose formulations were prepared on the study day and were stirred at room temperature for at least 15 minutes prior dosing and during the administration event. Cmpd A, B and C were dosed at 0.5-1 mg/kg i.v. and 1-300 mg/kg p.o. The dorsal metatarsal vein was used for sampling and typically 0.02 mL blood was withdrawn. Blood was taken at 2, 5, 15, 45 min, 2, 4, 8, 24 hours post the i.v. dose and at 15, 30 min, 1, 2, 4, 8, 24 hours post the p.o. dose. Blood of each sample was transferred into plastic micro centrifuge tubes containing 2 μL of 1000 IU Heparin-Na anticoagulant. These tubes were then inverted several times and placed on wet ice prior to centrifugation at 10,000 rpm for 2 minutes at 4°C in order to collect plasma. Plasma samples were stored at -75±15°C prior analysis. Compound concentrations were analyzed using a LC-MS/MS method (see below).
Effective T1/2 equals Ln2 x Vss/CL.

IL‐4, STAT6‐Luc = assay: IL-4-induced JAK-STAT6-luciferase assay in U937 monocytes; assay type: cell-based; settings: Homo sapiens, U-937, interleukin at EC80
[2] = Solubility in phosphate buffer; assay type: physicochemical; settings: pH 7.4, aqueous buffer
Source text: TABLE 1 In vitro potency and selectivity of JAK inhibitors | column: Solubility (μM) ^c

[3] = test system: C3H/HeJ mouse model of AA; assay: Hair growth (Hair Index Score) in C3H/HeJ graft-induced AA mice; assay type: in vivo; settings: for hair growth, result in words: AA mice; for Hair index score (% area x score, 0 to 3): individual mice and mean±SD
Experimental: Female C3H/HeJ graft‐induced mice were used as a preclinical model of Alopecia Areata (AA) according to previous publications.[45], [46], [47] Healthy C3H/HeJ and mice with fully developed AA (16–24 weeks after induction of disease) were monitored by means of body weight and hair index score on a weekly basis for 12 weeks, with free access to food and water (Healthy and AA groups, respectively).
Hair growth was evaluated using a scoring index (Hair Index Score, HIS). A score from 0 to 3 (0 = no fur, 1 = stubble, short broken hairs, 2 = sparse, intermediate length hairs, 3 = normal length and density hairs) was taken times the surface area of the mouse with each respective score (dorsal area = 50%, ventral area = 50%).
12 mice were given once daily servings of Cmpd A for free eating at approximately 100 mg/kg (compound dissolved in 10 ml tap water and mixed with 5 g grounded R70 standard rodent chow from Lantmännen, Sweden) for 4 weeks. Typically, these servings were finished within 2 h. Six mice were terminated at the end of the treatment period, blood and skin taken for determination of drug concentration and skin sampled for histopathological evaluation (see below, these mice are representing the systemic JAK1 inhibition group in histopathological evaluations). Skin biopsies for mRNA expression and blood was sampled from the other 6 mice where after these mice were followed off treatment for an additional 8 weeks when terminal samples were taken (8w off Tx group).
Another set of 6 mice were treated topically on the right side of their back with Cmpd B (0.1% cream formulation, Eucerin Aquaporin rich) for 12 weeks (local JAK1 inhibition group). Initially, twice weekly for 2 weeks followed by once weekly due to high tissue retention. Plasma exposure was evaluated during the course of the study as well as at termination when also skin was sampled for exposure, histopathological evaluation and mRNA expression.
The aim of the study was to achieve similar skin exposures by both routes of administration but only systemic exposure after oral administration. […] Blood, skin, lymph nodes and spleens were collected at termination for evaluation of exposure, mRNA expression, histopathology (RNAScope) and cell differentials (flow cytometry). Untreated healthy and alopecic mice served as controls (n = 6).

[4] = Plasma protein binding by equilibrium dialysis; assay type: in vitro ADME; settings: mouse plasma
Source text: as §1

[5] = Unbound fraction in tissue from rearranged Gillette equation; assay type: in vitro ADME, mouse; settings: mouse; from rearranged Gillette equation, V blood 0.07 L/kg, V tissue 0.6 L/kg
Source text: as §1

Basic pKa = assay type: physicochemical; settings: read-out: Basic pKa's
Source text: TABLE 2 In vitro and in vivo DMPK properties of Cmpd A, B & C | column: In vitro mouse & physical chemical properties / Basic pKa's

[6] = Caco permeability and efflux; assay type: in vitro ADME; settings: human, Caco-2; for Papp A→B: read-out: Caco AtB
Source text: TABLE 2 In vitro and in vivo DMPK properties of Cmpd A, B & C | column: In vitro mouse & physical chemical properties / Caco AtB 10^−6 cm/s/Efflux ratio ^b

[7] = topical application (local exposure)

Structure (SMILES): Cc1cnc(Nc2cc(N3C[C@@H]4C[C@H]3CN4C)cnc2F)nc1N[C@H](C)[C@H](C)CO [Cmpd B, (2S,3R)-3-{[2-({2-fluoro-5-[(1S,4S)-5-methyl-2,5-diazabicyclo[2.2.1]heptan-2-yl]pyridin-3-yl}amino)-5-methylpyrimidin-4-yl]amino}-2-methylbutan-1-ol]
- clearance [1]: 38 mL/min/kg
- Vd [1]: 8.4 L/kg
- bioavailability [1]: 16%
- IC50 (IL‐4, STAT6‐Luc): 110 nM
- solubility [2]: > 955 µM
- hair growth, result in words [3, 7]: did not restore hair growth
- Hair index score (% area x score, 0 to 3) ([3]; Local JAK1i (0.1% cream topical), treated side, w0, n=6): 50 and 0
- Hair index score (% area x score, 0 to 3) ([3]; Local JAK1i (0.1% cream topical), treated side, w0, n=6, mean): 17±26
- Hair index score (% area x score, 0 to 3) ([3]; Local JAK1i (0.1% cream topical), untreated side, w0, n=6): 30 and 0 and 10
- Hair index score (% area x score, 0 to 3) ([3]; Local JAK1i (0.1% cream topical), untreated side, w0, n=6, mean): 7±12
- Hair index score (% area x score, 0 to 3) ([3]; Local JAK1i, treated side, w1): 50 and 0 and 100
- Hair index score (% area x score, 0 to 3) ([3]; Local JAK1i, treated side, w1, mean): 25±42
- Hair index score (% area x score, 0 to 3) ([3]; Local JAK1i, treated side, w4): 80 and 0 and 10 and 20
- Hair index score (% area x score, 0 to 3) ([3]; Local JAK1i, treated side, w4, mean): 18±31
- Hair index score (% area x score, 0 to 3) ([3]; Local JAK1i, treated side, w6): 200 and 0 and 50 and 30
- Hair index score (% area x score, 0 to 3) ([3]; Local JAK1i, treated side, w6, mean): 47±78
- Hair index score (% area x score, 0 to 3) ([3]; Local JAK1i, treated side, w7): 200 and 80 and 0 and 100
- Hair index score (% area x score, 0 to 3) ([3]; Local JAK1i, treated side, w7, mean): 80±75
- Hair index score (% area x score, 0 to 3) ([3]; Local JAK1i, treated side, w8): 200 and 0 and 50 and 100
- Hair index score (% area x score, 0 to 3) ([3]; Local JAK1i, treated side, w8, mean): 58±80
- Hair index score (% area x score, 0 to 3) ([3]; Local JAK1i, treated side, w9): 240 and 0 and 25 and 70 and 90
- Hair index score (% area x score, 0 to 3) ([3]; Local JAK1i, treated side, w9, mean): 71±91
- Hair index score (% area x score, 0 to 3) ([3]; Local JAK1i, treated side, w11): 240 and 0 and 100 and 80
- Hair index score (% area x score, 0 to 3) ([3]; Local JAK1i, treated side, w11, mean): 70±94
- Hair index score (% area x score, 0 to 3) ([3]; Local JAK1i, untreated side, w1): 40 and 0 and 100
- Hair index score (% area x score, 0 to 3) ([3]; Local JAK1i, untreated side, w1, mean): 23±41
- Hair index score (% area x score, 0 to 3) ([3]; Local JAK1i, untreated side, w4): 70 and 0 and 10 and 30
- Hair index score (% area x score, 0 to 3) ([3]; Local JAK1i, untreated side, w4, mean): 18±28
- Hair index score (% area x score, 0 to 3) ([3]; Local JAK1i, untreated side, w6): 170 and 0 and 10 and 20
- Hair index score (% area x score, 0 to 3) ([3]; Local JAK1i, untreated side, w6, mean): 33±67
- Hair index score (% area x score, 0 to 3) ([3]; Local JAK1i, untreated side, w7): 170 and 0
- Hair index score (% area x score, 0 to 3) ([3]; Local JAK1i, untreated side, w7, mean): 28±69
- Hair index score (% area x score, 0 to 3) ([3]; Local JAK1i, untreated side, w8): 170 and 0 and 10
- Hair index score (% area x score, 0 to 3) ([3]; Local JAK1i, untreated side, w8, mean): 30±69
- Hair index score (% area x score, 0 to 3) ([3]; Local JAK1i, untreated side, w9): 200 and 0 and 25
- Hair index score (% area x score, 0 to 3) ([3]; Local JAK1i, untreated side, w9, mean): 37±80
- Hair index score (% area x score, 0 to 3) ([3]; Local JAK1i, untreated side, w11): 200 and 0 and 30 and 50
- Hair index score (% area x score, 0 to 3) ([3]; Local JAK1i, untreated side, w11, mean): 47±78
- f u, plasma [4]: 0.74
- f u, tissue [5]: 0.063
- pKa (Basic pKa): 8.6
- efflux ratio ([6]; Efflux ratio = BtA/AtB): 14
- Papp A→B [6]: 0.3 ×10⁻⁶ cm/s

Structure (SMILES): COCC(C(=O)Nc1cccc2c(-c3nc(Nc4cccc(S(C)(=O)=O)c4F)ncc3F)c[nH]c12)N1CCN(C)CC1 (stereo not drawn) [Cmpd C]
- clearance [1]: 26 mL/min/kg
- Vd [1]: 6.9 L/kg
- bioavailability [1]: 86%
- IC50 (IL‐4, STAT6‐Luc): 24 nM
- solubility [2]: 6.6 µM (≈ 3.96 µg/mL)
- hair growth, result in words ([3]; oral daily servings (systemic exposure)): induced hair growth
- hair growth, result in words [3, 7]: did not
- f u, plasma [4]: 0.11
- f u, tissue [5]: 0.011
- pKa (Basic pKa): 7.9
- Papp A→B [6]: 6.7 ×10⁻⁶ cm/s
